Patent US20070037887A1, “Blockade of mtor to prevent a hormonal adaptive response” (University of Virginia Patent Foundation, priority 2003, published 2007)

Key:
Assay type in all cases: cell-based, human
[1] = tested on: ERK1/2 MAP kinase, Akt, p70 S6 kinase, PHAS-I phosphorylation in LTED cells; test: Western analysis of serum-stimulated kinase phosphorylation, LTED cells
Method: (§1) FIGS. 7A-7D represent data showing the effect of FTS on serum-stimulated activation of MAP kinase, PI3 kinase, and mTOR. Subconfluent MCF-7 and LTED cells grown in 60 mm dishes were treated with FTS in their culture media for 24 h. Cells were then harvested and cell lysate prepared. Phosphorylation of ERK1/2 MAP kinase (FIG. 7A), Akt at Ser^473 (FIG. 7B), p70 S6 kinase at Thr^389 (FIG. 7C), and PHAS-I at Ser^65 (FIG. 7D) was detected by Western analysis using specific antibodies and quantitated by densitometry scanning.
FIGS. 10A-10D represent data showing the effect of FTS on serum- and growth factor-induced phosphorylation of p70 S6 kinase at Thr^229 in LTED cells (FIG. 10A). Comparison of FTS and LY 294002 (LY) on Thr^229 phosphorylation of p70 S6K induced by EGF (FIG. 10B; by same treatment as described in FIG. 8). Comparison of FTS and LY 294002 on […] phosphorylation of p70 S6K induced by IGF-1 (FIG. 10C; by same treatment as described in FIG. 8). FIG. 10D is graph displaying the time course of FTS (100 μM) effects on Thr^389 and Thr^229 phosphorylation of p70 S6K in LTED cells cultured in serum containing IMEM.
(§2) The levels of phosphorylated ERK1/2 MAPK, Akt (Ser^473), p70S6K (Thr^389) and PHAS-1 (Ser^65) were consistently elevated in LTED cells compared to those in wild type MCF-7 cells as indicated by Western blot analysis using specific antibodies against phosphorylated ERK 1/2 (FIG. 7A), Akt (FIG. 7B), p70S6 kinase (FIG. 7C) and PHAS-1 (FIG. 7D). […] (FIGS. 7C & 7D).
In contrast, LY294002 blocked growth factor induced Thr^229 phosphorylation in a dose- and time-dependent manner (FIGS. 10A and 10B). […] Therefore, FTS's effect on MTOR activity was investigated.

LTED cells = test: Growth of LTED cells (cell number)
Method: FIG. 3 represents the effect of FTS on the growth of MCF-7, LTED, and MCF-10A cells. Sixty thousand cells were plated into each well of 6-well plates. Two days later, the cells were treated in triplicate for five days with FTS at indicated concentrations. The results (mean±S.E.) are expressed as percentage of the vehicle control.
FIG. 4 represents the effect of FTS on E2 stimulated growth of MCF-7 and LTED cells. Thirty thousand cells were plated into each well of 6-well plates. Two days later, the cells were re-fed with IMEM containing 5% DCC-FBS. After another two days, cells were treated in triplicate with estradiol (10^−10 M) plus various concentrations of FTS for five days. In LTED cells, fulvestrant (10^−9 M) was included in all wells to block the effect of residual estrogen in the culture. The results (mean±S.E.) are expressed as percentage of cell number from the wells containing E2.
The effect of FTS on growth of breast cancer cells was examined in two different cell lines: MCF-7 wild type cells which represent a model for untreated breast cancer and LTED cells as a model of cells adapting to endocrine treatment. Cells were grown in their culture media and treated with FTS for five days. […] The effect of FTS on E2-stimulated growth of MCF-7 and LTED cells was the examined. […]

[2] = tested on: ERK1/2 MAP kinase, Akt, p70 S6 kinase, PHAS-I phosphorylation in MCF-7 cells; test: Western analysis of serum-stimulated kinase phosphorylation, MCF-7 cells; conditions: FTS 24 h
Method: as §1, §2

[3] = FTS 100 μM, serum containing medium

In the case of `CC(C)=CCC/C(C)=C/CC/C(C)=C/CSc1ccccc1C(=O)O` [FTS, farnesylthiosalicylic acid], the “time at which inhibition of Thr389 phosphorylation maximized” value [1, 3] is reported as 24 h, the “time at which inhibition of Thr389 phosphorylation occurred” value [1, 3] is reported as 2 h and the “Thr229 phosphorylation of p70 S6K” value ([1]; FTS 100 μM, serum containing medium, time course) is reported as “only slightly reduced”. The “phosphorylation of ERK1/2 MAPK, Akt (Ser473), p70S6K (Thr389) and PHAS-1 (Ser65)” value ([1]; FTS 24 h in culture media) was “dose-dependently inhibited”, the E2-stimulated growth (LTED cells; E2 10^−10 M in the presence of fulvestrant 10^−9 M) was “inhibited” and the basal growth (LTED cells; culture media, five days) was “dose-dependently inhibited”. For the same molecule, the “fall of phosphorylated ERK1/2 and 4E BP 1” value [2] was “approximately 50%” and the “p70 S 6 kinase and phospho-AKT” value [2] was “inconsistent decrements”.
